Test results taken from patent publication US20090311246A1, “Method of Enhancing Remyelination in Demyelinating Diseases of the Central Nervous System” (priority 2008, published 2009).

B1: Bovine MBP: bovine myelin basic protein (protein)
chain: AAQKRPSQRSKYLASASTMDHARHGFLPRHRDTGILDSLGRFFGSDRGAPKRGSGKDGHHAARTTHYGSLPQKAQGHRPQDENPVVHFFKNIVTPRTPPPSQGKGRGLSLSRFSWGAEGQKPGFGYGGRASDYKSAHKGLKGHDAQGTLSKIFKLGGRDSRSGSPMARR
B2: rMOG: recombinant MOG (protein, UniProt Q16653 30-247, looked up)
Myelin-oligodendrocyte …: GQFRVIGPRHPIRALVGDEVELPCRISPGKNATGMEVGWYRPPFSRVVHLYRNGKDQDGDQAPEYRGRTELLKDAIGEGKVTLRIRNVRFSDEGGFTCFFRDHSYQEEAAMELKVEDPFYWVSPGVLVLLAVLPVLLLQITVGLIFLCLQYRLRGKLRAEIENLHRTFDPHFLRVPCWKITLFVIVPVLGPLVALIICYNWLHRRLAGQFLEELRNPF
B3: MOG Protein: myelin oligodendrocyte glycoprotein (protein, UniProt Q16653 30-247, looked up)
Myelin-oligodendrocyte …: GQFRVIGPRHPIRALVGDEVELPCRISPGKNATGMEVGWYRPPFSRVVHLYRNGKDQDGDQAPEYRGRTELLKDAIGEGKVTLRIRNVRFSDEGGFTCFFRDHSYQEEAAMELKVEDPFYWVSPGVLVLLAVLPVLLLQITVGLIFLCLQYRLRGKLRAEIENLHRTFDPHFLRVPCWKITLFVIVPVLGPLVALIICYNWLHRRLAGQFLEELRNPF
B4: MBP Protein: myelin basic protein (protein, UniProt P02686 1-304, looked up)
Myelin basic protein: MGNHAGKRELNAEKASTNSETNRGESEKKRNLGELSRTTSEDNEVFGEADANQNNGTSSQDTAVTDSKRTADPKNAWQDAHPADPGSRPHLIRLFSRDAPGREDNTFKDRPSESDELQTIQEDSAATSESLDVMASQKRPSQRHGSKYLATASTMDHARHGFLPRHRDTGILDSIGRFFGGDRGAPKRGSGKDSHHPARTAHYGSLPQKSHGRTQDENPVVHFFKNIVTPRTPPPSQGKGRGLSLSRFSWGAEGQRPGFGYGGRASDYKSAHKGFKGVDAQGTLSKIFKLGGRDSRSGSPMARR

Tests used:
Assay type in all cases: binding
[1] = tested on: sera from SFV-infected B6 mice; conditions: for Dh / D0 (Ratio): OD of highest day (day 15 or 21) over day 0, SFV-infected sera; for Dh−D0 (difference): OD of highest day minus day 0, SFV-infected sera; for Net change in the levels of antibody (ΔOD), D7-9 / Net change in the levels of antibody (ΔOD), D14-16 / Net change in the levels of antibody (ΔOD), D21-23 / Net change in the levels of antibody (ΔOD), D31-35: SFV-infected mice sera, day 0 OD subtracted; for Net change in the levels of antibody (ΔOD), D7-9: days 7-9 pi; for Net change in the levels of antibody (ΔOD), D14-16: days 14-16 pi; for Net change in the levels of antibody (ΔOD), D21-23: days 21-23 pi; for Net change in the levels of antibody (ΔOD), D31-35: days 31-35 pi; for Reactivity of sera from SFV-infected B6 mice with the antigen in ELISA: vs day 0
Experimental: To measure the antibody response of both WT and γδ KO mice against SFV and two of the peptides of the SFV envelope protein, E2, an indirect ELISA was performed. Sera were pooled from 4-6 SFV-infected WT, and 3 KO, mice on days 0, 7, 14, 21 and 35 pi. Briefly, Immunolon 2HB 96 well microtiter plates (VWR, Bridge Port, N.J.) were coated with 1 μg/well of each antigen in 100 μl/well carbonate buffer overnight at room temperature. After washing, the plates were blocked and serum samples were added. […] After washing, biotinylated goat anti-mouse Igs (BD Pharmingen, Torreyana, Calif.), Strepavidin conjugated to Horse Radish Peroxidase (Vector Laboratories, Burlingame, Calif.), and OPD substrate (Sigma, St. Louis, Mo.) were used, as previously described (4, 9). […] Values were considered to be positive when they were >0.3 OD units and exceeded the mean value plus three standard deviations for antibody response on day 0 pi of mice of the same strain. […]
In some instances day 0 OD values were high, thus making the differences appear small. Therefore, to account for such discrepancy, we also determined the ratio of the highest day (day 15 or 21) over day 0.

[2] = tested on: Rabbit Anti-SFV polyclonal antibody; assay: Indirect ELISA of rabbit anti-SFV polyclonal IgG against viral and myelin antigens; conditions: for Rabbit Anti-SFV Ab, OD at 490 nm: 10^−2 diluted, indirect ELISA; for Immunoreactivity of IgG fraction of serum from rabbits immunized with UV-inactivated SFV: ELISA; for OD Difference: Rabbit Anti-SFV Ab minus Normal Rabbit Serum
Experimental: The total IgG fraction was commercially prepared (Strategic Biosolutions, Ramona, Calif.) from pooled sera of 3 rabbits immunized once with UV-inactivated SFV (A774 strain) emulsified in CFA and boosted 3 times with antigen in IFA at weeks 3, 5, and 7. The IgG fraction of the pooled antisera was purified by ion-exchange chromatography and contained 8.7 mg IgG/ml of PBS. Antibody activities to SFV and peptides of SFV, to E2, and to recombinant ® MOG and its peptides were confirmed by ELISA. Normal rabbit IgG, isolated from pooled normal rabbit sera by ion-exchange chromatography (Signa Chemical Co., St. Louis, Mo.), was dissolved in saline. Protein concentration was determined by the Bradford assay (Sigma), using normal rabbit IgG as the standard. The IgG solutions were diluted to 3 mg protein/ml in saline and sterilized by passage through a 0.22 μm filter (Millipore Corp., Bedford, Mass.).
To measure the antibody response of both WT and γδ KO mice against SFV and two of the peptides of the SFV envelope protein, E2, an indirect ELISA was performed. Sera were pooled from 4-6 SFV-infected WT, and 3 KO, mice on days 0, 7, 14, 21 and 35 pi. Briefly, Immunolon 2HB 96 well microtiter plates (VWR, Bridge Port, N.J.) were coated with 1 μg/well of each antigen in 100 μl/well carbonate buffer overnight at room temperature. After washing, the plates were blocked and serum samples were added. […] After washing, biotinylated goat anti-mouse Igs (BD Pharmingen, Torreyana, Calif.), Strepavidin conjugated to Horse Radish Peroxidase (Vector Laboratories, Burlingame, Calif.), and OPD substrate (Sigma, St. Louis, Mo.) were used, as previously described (4, 9). […] Values were considered to be positive when they were >0.3 OD units and exceeded the mean value plus three standard deviations for antibody response on day 0 pi of mice of the same strain.
The polyclonal rabbit anti SFV antibody was commercially prepared (Strategic Biosolutions, Ramona, Calif.) from pooled sera of 3 rabbits, immunized once with UV-inactivated SFV (A774 strain) emulsified in CFA and boosted 3 times with antigen in IFA at weeks 3, 5, and 7.

Normal Rabbit Serum = assay: Indirect ELISA of normal rabbit serum/IgG against viral and myelin antigens; conditions: 10^−2 diluted
[3] = tested on: sera from SFV-infected WT and γδ KO mice; assay: ELISA of sera from SFV-infected WT and γδ KO mice against SFV, E2 peptides, PPD and rMOG; conditions: WT and KO, days 7 to 35 pi

| Molecule | Dh / D0 (Ratio) [1] | Dh−D0 (difference) [1] | Rabbit Anti-SFV Ab, OD at 490 nm [2] [OD] | Immunoreactivity of IgG fraction of serum from rabbits immunized with UV-inactivated SFV [2] | OD Difference [2] [OD] | Net change in the levels of antibody (ΔOD), D7-9 [1] | Net change in the levels of antibody (ΔOD), D14-16 [1] | Net change in the levels of antibody (ΔOD), D21-23 [1] | Net change in the levels of antibody (ΔOD), D31-35 [1] | Reactivity of sera from SFV-infected B6 mice with the antigen in ELISA [1] | Normal Rabbit Serum, OD at 490 nm (Normal Rabbit Serum) [OD] | Reactivity of sera from both SFV-infected WT and KO groups [3] |
| --- | --- | --- | --- | --- | --- | --- | --- | --- | --- | --- | --- | --- |
| THYGSLPQKSQR (GSGKDSHTRTTH) [MBP 64-75, myelin basic protein peptide 64-75] | 2.93 | 0.375 |  |  |  |  |  |  |  |  |  |  |
| DEAELPSRISPGKNA [MOG 18-32] | 3.2 | 0.919 | 0.907 | Cross-reactivity | 0.647 | 0.34 ± 0.31 ΔOD | 0.75 ± 0.23 ΔOD | 0.91 ± 0.15 ΔOD | 0.91 ± 0.36 ΔOD | reacted significantly | 0.260 |  |
| EGVNDNEEGFFSAR [FB, Fibrinopeptide B, 1-14, negative control peptide] | 1.26 | 0.068 |  |  |  | 0.06 ± 0.07 ΔOD | 0.05 ± 0.07 ΔOD | 0.05 ± 0.08 ΔOD | 0.08 ± 0.09 ΔOD |  |  |  |
| NH2-MEVGWYRSPFSRVVHLYRNGK-OH (H-MEVGWYRSPFSRVVHLYRNGK-OH) [MOG 35-55, myelin oligodendrocyte glycoprotein (MOG) peptide 35-55] | 5.11 | 0.362 | 0.184 |  | 0.177 | 055 ± 0.08 ΔOD | 0.78 ± 0.08 ΔOD | 0.82 ± 0.05 ΔOD | 0.78 ± 0.07 ΔOD |  | 0.007 |  |
| GKDSHTRTTHYGS [MBP 56-68, mouse MBP 56-68 peptide, mimicked by E2 137-151] | 5.37 | 0.824 | 0.852 | Cross-reactivity | 0.691 | 1.10 ± 0.04 ΔOD | 0.83 ± 0.10 ΔOD | 1.07 ± 0.12 ΔOD | 0.55 ± 0.18 ΔOD | reacted significantly | 0.195 |  |
| B1 |  |  | 0.622 |  | 0.339 |  |  |  |  |  | 0.283 |  |
| B2 |  |  | 0.359 |  | 0.146 |  |  |  |  |  | 0.213 | twice as the background level |
| B3 | 4.1 | 0.89 |  |  |  | 0.47 ± 0.21 ΔOD | 0.84 ± 0.18 ΔOD | 0.91 ± 0.11 ΔOD | 0.96 ± 0.07 ΔOD | reacted significantly |  |  |
| B4 | 2.42 | 0.967 |  |  |  | 0.53 ± 0.11 ΔOD | 1.04 ± 0.24 ΔOD | 1.12 ± 0.31 ΔOD | 1.00 ± 0.32 ΔOD | reacted significantly |  |  |
